The subject of data set [1] is FR-positive KB tumor cells. The data set is described as follows: Uptake and internalization of 177Lu-RedFols in KB tumor cells. In kind it is cell-based, human. As to conditions: 4 h incubation, percent of total added activity. As to the method: The KB cells (a human cervical carcinoma cell line, subclone of HeLa cells, ACC-136) were purchased from the German Collection of Microorganisms and Cell Cultures (DSMZ, Germany). The tumor cells were cultured in folate-deficient RPMI medium (FFRPMI, Cell Culture Technologies GmbH, Gravesano, Switzerland) supplemented with 10% fetal calf serum, […] and antibiotics.
The experiments to investigate the uptake and internalization of ^177Lu-RedFols (50 MBq/nmol) were performed according to a previously established protocol (Supplementary Materials Section S9). The results were presented as a percentage of total added activity and listed as the average ± SD of 3–6 independent experiments, each performed in triplicates. The data were analyzed for statistical significance using a one-way ANOVA with Tukey’s post-comparison test (GraphPad Prism software version 8) considering a p-value < 0.05 as statistically significant. […]
S8. Radiolabeling and Radiolytic Stability of Folate Radioconjugates
Purpose: RedFols were labeled with lutetium-177 and assessed for their in vitro sta- […]
Methods: Folate conjugates were dissolved in Milli-Q water containing 4–6% sodium ascorbate (0.5 M) to obtain a final concentration of 1 mM. Radiolabeling of the RedFols with lutetium-177 (no-carrier-added, in 0.04 M HCl; ITM Medical Isotopes GmbH, Mu-nich, Germany) was performed using a mixture of sodium acetate (0.5 M) and HCl (0.05 M) at pH ~4.5 in the presence of L-ascorbic acid (6 mg) as previously reported for […]
RedFol-1 (6R and 6S). […]
S9. Uptake and Internalization of 177Lu-RedFols
Purpose: Uptake and internalization studies were performed with all folate radiocon-jugates using folate receptor (FR)-positive KB tumor cells.
Methods: The experiments were performed as previously reported. KB tumor cells (human cervical cancer cell line, ACC-136) were seeded into poly-lysine-coated 12-well plates (0.5 × 10^6 cells in 2 mL per well) using folate-free RPMI (FFRPMI) medium supplemented with 10% fetal calf serum, glutamine and antibiotics. The tumor cells were incubated overnight to allow adhesion and growth at 37 °C and 5% CO2. After removal of the supernatant, the KB cells were rinsed with PBS prior to the addition of FFRPMI me-dium without supplements (975 µL/well). The folate radioconjugates (50 MBq/nmol) were added to each well in a volume of 25 µL (0.75 pmol, 38 kBq). In some wells, KB tumor cells were co-incubated with excess folic acid (100 µM) to block the FRs on the cell surface.
After incubation of the well plates for 2 h or 4 h at 37 °C and 5% CO2, the KB tumor cells were rinsed three times with ice-cold PBS to determine the total uptake of the folate radi-oconjugates. In order to assess the internalized fraction, a stripping buffer (aqueous solu-tion of 0.1 M acetic acid and 0.15 M NaCl, pH 3) was applied to release FR-bound folate radioconjugates from the cell surface. Cell samples were lysed by addition of NaOH solu-tion (1 M, 1 mL) to each well. The cell lysates were counted for activity in a γ-counter (Perkin Elmer, Wallac Wizard 1480, Waltham, MA, USA). The protein concentrations of […]
each sample were determined using a Micro BCA Protein Assay kit (Pierce, Thermo Sci-entific) in order to standardize the measured activity to the average content of protein in […]
Results: The results are presented in the main article and in Figure S1.
Figure S1. Uptake and internalization of folate radioconjugates in KB tumor cells after an incubation period of 2 h and 4 h at 37°C. (A) Uptake of the folate radioconjugates in KB tumor cells. (B) Inter-nalized fraction of folate radioconjugates in KB tumor cells. The data are expressed as average ± SD […]
S10. FR-binding Affinity (KD Values) of 177Lu-RedFols
Purpose: The folate radioconjugates were investigated in vitro in order to determine their FR-binding affinities (KD values).
Methods: The determination of the KD values was performed as previously reported […]

The target of data set [2] is T1, mouse serum albumin (MSA) in mouse plasma (Mus musculus, UniProt P07724).
T1 construct: tissue Rockland Immunochemicals, Inc. Lot No. 32321; host or cells: mouse blood plasma, undiluted and diluted in PBS
Briefly: Ultrafiltration albumin-binding assay of 177Lu-RedFols, mouse plasma. To be noted: for Relative albumin-binding affinity: mouse blood plasma, inverse B50 ratio, normalized to the respective (6R or 6S) RedFol-1, set as 1.0; for Albumin-bound fraction: undiluted mouse blood plasma. As to the method: S11. Relative Albumin-Binding Properties of 177Lu-RedFols
human blood plasma was determined and compared.
Switzerland; HSA: ⁓800 µM), respectively. An ultrafiltration method was applied accord-
ples at 37 °C for 30 min.
unbound) fractions of each sample. The inserts of the filter devices were inverted and
were presented as average of 3 independent experiments.

The values below come from article PMC10486429, “Investigations Using Albumin Binders to Modify the Tissue Distribution Profile of Radiopharmaceuticals Exemplified with Folate Radioconjugates” (Cancers, 2023).

T1 sequence (P07724 25-608): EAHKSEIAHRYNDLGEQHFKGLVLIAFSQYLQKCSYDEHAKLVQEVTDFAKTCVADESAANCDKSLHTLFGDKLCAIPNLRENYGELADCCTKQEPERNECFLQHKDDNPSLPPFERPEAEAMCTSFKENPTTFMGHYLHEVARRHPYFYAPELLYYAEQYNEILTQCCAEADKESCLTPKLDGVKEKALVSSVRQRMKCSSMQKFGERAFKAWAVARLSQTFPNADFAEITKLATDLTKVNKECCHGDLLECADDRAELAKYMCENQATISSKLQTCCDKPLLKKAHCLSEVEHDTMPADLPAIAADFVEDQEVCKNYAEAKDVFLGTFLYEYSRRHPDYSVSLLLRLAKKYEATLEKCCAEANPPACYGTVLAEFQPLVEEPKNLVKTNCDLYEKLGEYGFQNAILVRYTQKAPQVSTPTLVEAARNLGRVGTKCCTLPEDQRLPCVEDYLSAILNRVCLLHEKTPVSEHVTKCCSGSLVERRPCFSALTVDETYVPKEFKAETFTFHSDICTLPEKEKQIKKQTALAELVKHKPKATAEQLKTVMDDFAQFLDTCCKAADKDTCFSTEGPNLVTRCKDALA

On to `CN1c2c(nc(N)[nH]c2=O)NC[C@H]1CNc1ccc(C(=O)N[C@@H](CCC(=O)N[C@@H](CCCCNC(=O)CN2CCN(CC(=O)O)CCN(CC(=O)O)CCN(CC(=O)O)CC2)C(=O)N[C@@H](CCCCNC(=O)c2ccc(CNC(=O)CCCCc3ccc(I)cc3)cc2)C(=O)O)C(=O)O)cc1` [[^177Lu]Lu-6R-RedFol-25, metal not drawn], for which, in data set [1], the “Cell-Internalized Fraction” value was found to be 17 ± 3% and the “Total Cell Uptake” value came to 29 ± 8%. Besides, in data set [2], the Relative albumin-binding affinity worked out at 1.4 and the Albumin-bound fraction is recorded as 94%.
In the same order, the values of `CN1c2c(nc(N)[nH]c2=O)NC[C@H]1CNc1ccc(C(=O)N[C@@H](CCC(=O)N[C@@H](CCCCNC(=O)CN2CCN(CC(=O)O)CCN(CC(=O)O)CCN(CC(=O)O)CC2)C(=O)N[C@@H](CCCCNC(=O)c2ccc(CNC(=O)CCCc3ccc(I)cc3)cc2)C(=O)O)C(=O)O)cc1` [[^177Lu]Lu-6R-RedFol-3, metal not drawn] are 19 ± 8%, 39 ± 14%, 8.4 and 97%.
In the case of `CN1c2c(nc(N)[nH]c2=O)NCC1CNc1ccc(C(=O)NC(CCC(=O)NC(CCCCNC(=O)CN2CCN(CC(=O)[O-])CCN(CC(=O)[O-])CCN(CC(=O)[O-])CC2)C(=O)NC(CCCCNC(=O)c2ccc(CNC(=O)CCCCc3ccc(I)cc3)cc2)C(=O)O)C(=O)O)cc1.[177Lu+3]` (stereo not drawn) [[^177Lu]Lu-6S-RedFol-25], in data set [1], the “Cell-Internalized Fraction” value is given as 31 ± 3% and the “Total Cell Uptake” value is given as 55 ± 5%. Moreover, in data set [2], the Relative albumin-binding affinity worked out at 0.7 and the Albumin-bound fraction was determined as 92%.
For `CN1c2c(nc(N)[nH]c2=O)NCC1CNc1ccc(C(=O)NC(CCC(=O)NC(CCCCNC(=O)CN2CCN(CC(=O)[O-])CCN(CC(=O)[O-])CCN(CC(=O)[O-])CC2)C(=O)NC(CCCCNC(=O)c2ccc(CNC(=O)CCCc3ccc(I)cc3)cc2)C(=O)O)C(=O)O)cc1.[177Lu+3]` (stereo not drawn) [[^177Lu]Lu-6S-RedFol-3], in that order: 23 ± 8%, 44 ± 11%, 3.5 and 97%.
For `CN1c2c(nc(N)[nH]c2=O)NC[C@H]1CNc1ccc(C(=O)N[C@@H](CCC(=O)N[C@@H](CCCCNC(=O)CN2CCN(CC(=O)O)CCN(CC(=O)O)CCN(CC(=O)O)CC2)C(=O)N[C@@H](CCCCNC(=O)CCCc2ccc(I)cc2)C(=O)O)C(=O)O)cc1` [[^177Lu]Lu-6R-RedFol-1, metal not drawn], in that order: 12 ± 2%, 49 ± 11%, 1.0 and 93%.
For `CN1c2c(nc(N)[nH]c2=O)NCC1CNc1ccc(C(=O)NC(CCC(=O)NC(CCCCNC(=O)CN2CCN(CC(=O)[O-])CCN(CC(=O)[O-])CCN(CC(=O)[O-])CC2)C(=O)NC(CCCCNC(=O)CCCc2ccc(I)cc2)C(=O)O)C(=O)O)cc1.[177Lu+3]` (stereo not drawn) [[^177Lu]Lu-6S-RedFol-1], in that order: 18 ± 1%, 62 ± 6%, 1.0 and 93%.
For the molecule `CN1c2c(nc(N)[nH]c2=O)NC[C@H]1CNc1ccc(C(=O)N[C@@H](CCC(=O)N[C@@H](CCCCNC(=O)CN2CCN(CC(=O)O)CCN(CC(=O)O)CCN(CC(=O)O)CC2)C(=O)N[C@@H](CCCCNC(=O)CCCCc2ccc(I)cc2)C(=O)O)C(=O)O)cc1` [[^177Lu]Lu-6R-RedFol-24, metal not drawn], in data set [1], the “Cell-Internalized Fraction” value is 15 ± 1% and the “Total Cell Uptake” value was 40 ± 6%. Further, in data set [2], the Relative albumin-binding affinity was found to be 0.2 and the Albumin-bound fraction came out at 73%.
